Data taken from patent US20230044979A1, “ANIMAL CELL CULTURING METHOD” (AJINOMOTO CO., INC., priority 2020, published 2023).

Columns and labels:
[1] = Stability of L-cysteine derivatives in buffer solution (crystal precipitation by visual observation); type: physicochemical; conditions: 58 mM in PBS buffer pH 7.0 to 7.2; for relative stability compared with L-cysteine: 5° C. in the dark; for crystal precipitation, Days 0 / crystal precipitation, Days 3 / crystal precipitation, Days 7 / crystal precipitation, Days 14 / crystal precipitation, Days 21 / crystal precipitation, Days 24: stored at 5° C. in the dark; for crystal precipitation, Days 0: day 0; for crystal precipitation, Days 3: day 3; for crystal precipitation, Days 7: day 7; for crystal precipitation, Days 14: day 14; for crystal precipitation, Days 21: day 21; for crystal precipitation, Days 24: day 24
Protocol: In this Example, the stability of L-cysteine derivatives in a buffer solution was evaluated.
In the table, “+” to “++++” indicate that crystal precipitation was observed, and the higher the number of “+”, the greater the degree of precipitation.

[2] = tested on: CHO cells; test: Effect of addition of L-cysteine derivatives to feed medium on proliferation of CHO cells and antibody production (3); type: cell-based, Chinese hamster; conditions: 58 mM in feed medium, 11 days culture, compared to the case without addition of L-cysteine; for cell count: FIG. 6; for antibody production amount: FIG. 7
Protocol: (§1) CELLiST (registered trademark) Basal media (Ajinomoto Co., Ltd.: BASAL3; containing 1.3 mM L-cysteine) was added with LR3-IGF-1 (SIGMA-ALDRICH: I1271-1MG, final concentration of 50 μg/mL) and L-Glutamine (Thermo Fisher SCIENTIFIC: 25030081, final concentration of 6 mM), to prepare a basal medium.
Feed media each containing 82 g/L Cellvento (registered trademark) Feed-210 (Merck: 1.02488.0005), 70 g/L glucose (Wako Pure Chemical Industries, Ltd.: 043-31163), and L-cysteine, Compound 4, Compound 8, Compound 9, or Compound 11 each at 58 mM were prepared. In addition, a feed medium without addition of L-cysteine, which only contained 82 g/L Cellvento (registered trademark) Feed-210 and 70 g/L glucose, was prepared. Separately, a tyrosine concentrate (L-tyrosine disodium salt dihydrate (Merck: 122666-87-9) 74.82 g/L, pH 11.3) was prepared.
A 30 mL-aliquot of a CHO cell suspension adjusted to 3×10^5 cells/mL using the prepared basal medium was seeded into 125 mL-volume flasks (CORNING: 431143), and cultured for 11 days. The culture was carried out with n=2 for all experimental groups. The culture temperature was 37° C. and the agitation speed was 110 rpm. A 1.8 mL-aliquot of each of the prepared feed media and a 120 μL-aliquot of the tyrosine concentrate were added on days 4, 7, and 9 from the start of the culture. A cell culture broth was sampled on days 4, 7, 9, and 11 from the start of the culture, and the viable cell count was measured using a viable/dead cells autoanalyzer Vi-CELL™ XR (Beckman Coulter), and the antibody production amount was measured using Octet QK (FORTEBIO).

[3] = tested on: CHO cells; test: Effect of addition of L-cysteine derivatives to feed medium on proliferation of CHO cells and antibody production (2); type: cell-based, Chinese hamster; conditions: for proliferation performance of cells: 14.5 mM in feed medium, L-cysteine in the feed medium substituted; for proliferation performance of cells / cell count, dependence on concentration: FIG. 4; for IgG production amount: 58.0 mM in feed medium; for IgG production amount / IgG production amount, dependence on concentration: FIG. 5; for cell count, dependence on concentration / IgG production amount, dependence on concentration: 14.5, 29, 58 mM in feed medium
Protocol: as §1
Feed media each containing 82 g/L Cellvento (registered trademark) Feed-210 (Merck: 1.02488.0005), 70 g/L glucose (Wako Pure Chemical Industries, Ltd.: 043-31163), and L-cysteine, Compound 3S, or Compound 3R each at 14.5 mM, 29 mM, or 58 mM were prepared. Separately, a tyrosine concentrate (L-tyrosine disodium salt dihydrate (Merck: 122666-87-9) 74.82 g/L, pH 11.3) was prepared.
A 3 mL-aliquot of a CHO cell suspension adjusted to 3×10^5 cells/mL using the prepared basal medium was seeded into a 6 well plate (CORNING, Cat. No. CLS3471), and cultured for 14 days. The culture was carried out with n=2 for all experimental groups. The culture temperature was 37° C. and the agitation speed was 110 rpm. A 0.18 mL-aliquot of each of the prepared feed media and a 12 μL-aliquot of the tyrosine concentrate were added on days 4, 7, 9, and 11 from the start of the culture. A cell culture broth was sampled on days 4, 7, 9, 11, and 14 from the start of the culture, and the viable cell count was measured using a viable/dead cells autoanalyzer Vi-CELL™ XR (Beckman Coulter), and the antibody production amount on days 11 and 14 from the start of the culture was measured using Octet QK (FORTEBIO).

| Structure (SMILES) | relative stability compared with L-cysteine [1] | crystal precipitation, Days 0 [1] | crystal precipitation, Days 3 [1] | crystal precipitation, Days 7 [1] | crystal precipitation, Days 14 [1] | crystal precipitation, Days 21 [1] | crystal precipitation, Days 24 [1] | cell count [2] | antibody production amount [2] | proliferation performance of cells [3] | IgG production amount [3] | cell count, dependence on concentration [3] | IgG production amount, dependence on concentration [3] | ability to substitute for L-cysteine ([3]; in feed medium) |
| --- | --- | --- | --- | --- | --- | --- | --- | --- | --- | --- | --- | --- | --- | --- |
| CCOC(=O)C1N[C@H](C(=O)O)CS1 (mixture of isomers) [Compound 8, (2RS,4R)-2,4-thiazolidinedicarboxylic acid 2-ethyl ester] | more stable than L-cysteine | − | − | − | − | − | − | higher than those of the case without addition of L-cysteine | higher than those of the case without addition of L-cysteine |  |  |  |  |  |
| CC(C)OC(=O)C1(C)N[C@H](C(=O)O)CS1 (mixture of isomers) [Compound 4, (2RS,4R)-2-methyl-2,4-thiazolidinedicarboxylic acid 2-i-propyl ester] | more stable than L-cysteine | − | − | − | − | − | − | higher than those of the case without addition of L-cysteine | higher than those of the case without addition of L-cysteine |  |  |  |  |  |
| CC(C)(C)OC(=O)C1(C)N[C@H](C(=O)O)CS1 (mixture of isomers) [Compound 6, (2RS,4R)-2-methyl-2,4-thiazolidinedicarboxylic acid 2-t-butyl ester] | more stable than L-cysteine | − | − | − | − | − | − |  |  |  |  |  |  |  |
| COC(=O)C1(Cc2ccc(O)cc2)N[C@H](C(=O)O)CS1 (mixture of isomers) [Compound 9, (2RS,4R)-2-(4-hydroxyphenyl)methyl-2,4-thiazolidinedicarboxylic acid 2-methyl ester] | more stable than L-cysteine | − | − | − | − | − | − | higher than those of the case without addition of L-cysteine | higher than those of the case without addition of L-cysteine |  |  |  |  |  |
| COC(=O)[C@]1(C)N[C@H](C(=O)O)CS1 (stereo in doubt) [Compound 3R, (2RS,4R)-2-methyl-2,4-thiazolidinedicarboxylic acid 2-methyl ester] | more stable than L-cysteine | − | − | − | − | − | − |  |  | approximately 70% | equivalent to that of the group adding 14.5 mM or 29.0 mM of L-cysteine hydrochloride monohydrate | increased in a concentration-dependent manner | increased in a concentration-dependent manner |  |
| COC(=O)[C@@]1(C)N[C@H](C(=O)O)CS1 (stereo in doubt) [Compound 3S, (2RS,4R)-2-methyl-2,4-thiazolidinedicarboxylic acid 2-methyl ester] | more stable than L-cysteine | − | − | − | − | − | − |  |  | approximately 70% | equivalent to that of the group adding 14.5 mM or 29.0 mM of L-cysteine hydrochloride monohydrate | increased in a concentration-dependent manner | increased in a concentration-dependent manner |  |
| COC(=O)C1(CC(C)C)N[C@H](C(=O)O)CS1 (mixture of isomers) [Compound 11, (2RS,4R)-2-i-butyl-2,4-thiazolidinedicarboxylic acid 2-methyl ester] |  |  |  |  |  |  |  | decreased | decreased |  |  |  |  |  |
| COC(=O)[C@@]1(C)N[C@H](C(=O)O)CS1 (stereo in doubt) [Compound 3, (2RS,4R)-2-methyl-2,4-thiazolidinedicarboxylic acid 2-methyl ester] |  |  |  |  |  |  |  |  |  |  |  |  |  | able to substitute for L-cysteine |
